Consider 42 molecules from ChEMBL document CHEMBL1141080, “Discovery of potent orally active thrombin receptor (protease activated receptor 1) antagonists as novel antithrombotic agents” (J Med Chem, 2005).

A short description of data set [1]: Maximum plasma concentration after oral administration to rats in 20% hydroxypropyl-beta-cyclodextrin after 4 hours. The conditions noted are these: rat.
For data set [2], the target named is T1, Proteinase-activated receptor 1 (Homo sapiens, UniProt P25116).
T1 sequence (P25116 whole entry): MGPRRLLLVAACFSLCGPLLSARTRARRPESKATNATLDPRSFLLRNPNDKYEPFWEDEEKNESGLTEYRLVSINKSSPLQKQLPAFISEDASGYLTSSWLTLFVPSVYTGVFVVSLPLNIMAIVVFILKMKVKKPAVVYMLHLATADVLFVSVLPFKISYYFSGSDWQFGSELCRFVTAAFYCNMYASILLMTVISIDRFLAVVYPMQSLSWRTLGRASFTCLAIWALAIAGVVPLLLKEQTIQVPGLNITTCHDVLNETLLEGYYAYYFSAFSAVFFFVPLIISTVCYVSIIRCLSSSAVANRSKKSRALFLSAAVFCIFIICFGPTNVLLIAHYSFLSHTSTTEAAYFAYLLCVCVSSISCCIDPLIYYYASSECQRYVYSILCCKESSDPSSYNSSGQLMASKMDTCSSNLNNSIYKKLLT
Description: (§1) In vitro inhibitory concentration against human protease activated receptor 1 using [3H]-haTRAP as radioligand

Data set [3] in a line: Area under curve after oral administration to rats in 20% hydroxypropyl-beta-cyclodextrin after 4 hours. The following applies: rat, in vivo.
Data set [4] can be described thus: Bioavailability of compound upon oral administration in rat. The conditions noted are these: in vivo. Type of data set: ADME, organism-based.
Data set [5] can be described thus: Half life of compound upon iv administration in rat. Type of data set: ADME, organism-based. The following applies: in vivo.
Data set [6] can be described thus: Bioavailability of compound after oral administration in rat at a dose of 10 mg/kg. The conditions noted are these: in vivo. Type of data set: ADME, organism-based.
Data set [7] can be described thus: Maximum plasma concentration upon oral administration in rat.
Data set [8] is described as follows: Half life after intravenous administration in monkey. Type of data set: ADME, organism-based. The following applies: cercopithecidae, in vivo.
The nature of data set [9]: Bioavailability of compound after oral administration in monkey. The conditions noted are these: cercopithecidae, in vivo.
Data set [10] in a line: Half life upon intravenous administration in rat. The class given is ADME, organism-based. The conditions noted are these: in vivo.
The target of data set [11] is T1, Proteinase-activated receptor 1. The source holds these as a separate data set.
Description: as §1

As usually defined, the Cmax is the highest concentration seen after dosing. What is called IC50 is the concentration that inhibits the measured activity by half. The AUC is the area under the concentration-time curve, a measure of exposure. As for `C[C@H]1OC(=O)[C@@H]2C[C@@H]3CCCC[C@H]3[C@H](/C=C/c3ccc(-c4ccccc4)cn3)[C@H]12`, the highest concentration (Cmax) in data set [1] stood at 453 nM. Also, in data set [2], the IC50 came out at 0.027 µM. Further, the exposure (AUC) at 4 h in data set [3] was determined as 0.917 µM·h. Molecule `C[C@H]1OC(=O)[C@@H]2C[C@@H]3CCCC[C@H]3[C@H](/C=C/c3ccc(-c4cccc(S(N)(=O)=O)c4)cn3)[C@H]12` yielded a concentration for half-maximal inhibition (IC50) in data set [2] of 0.1 µM. The molecule `Cc1cccc(-c2ccc(/C=C/[C@H]3[C@@H]4CCCC[C@H]4C[C@H]4C(=O)O[C@H](C)[C@@H]34)nc2)c1` registered a maximum concentration (Cmax) in [1] of 380 nM. Besides, in data set [2], half-maximal inhibition (IC50) was put at 0.013 µM. The molecule also returned an AUC at 4 h in data set [3] of 0.331 µM·h. Taken in the same sequence, the figures for `CC(C)c1cccc(-c2ccc(/C=C/[C@H]3[C@@H]4CCCC[C@H]4C[C@H]4C(=O)O[C@H](C)[C@@H]34)nc2)c1` were 289 nM, 0.019 µM and 0.258 µM·h.

By bioavailability is commonly meant the share of a dose that reaches the circulation, judged against a reference dose that is usually intravenous. As usually defined, the half-life is the time needed for the level to fall by half in the phase considered. Regarding `CCc1cccc(/C=C/[C@H]2[C@@H]3CCCC[C@H]3C[C@H]3C(=O)O[C@H](C)[C@@H]23)n1`, in data set [4], the bioavailability was less than 3%. Further, the half-life in [5] was less than 1 h.

`C[C@H]1OC(=O)[C@@H]2C[C@@H]3CCCC[C@H]3[C@H](/C=C/c3ccc(-c4cccc(F)c4)cn3)[C@H]12`: the highest level in data set [1] (Cmax) was 1520 nM. The molecule also registered a half-maximal inhibitory concentration (IC50) in data set [2] of 0.035 µM. This molecule also displayed an AUC at 4 h in data set [3] of 3.55 µM·h.

Turning to `C[C@H]1OC(=O)[C@@H]2C[C@@H]3CCCC[C@H]3[C@H](/C=C/c3ccc(-c4cccc(Br)c4)cn3)[C@H]12`, the IC50 in [2] amounted to 0.025 µM.

`C[C@H]1OC(=O)[C@@H]2C[C@@H]3CCCC[C@H]3[C@H](/C=C/c3ccc(-c4ccccc4F)cn3)[C@H]12`: in data set [1], the peak level (Cmax) was 1080 nM. This molecule also showed a half-inhibitory concentration (IC50) in data set [2] of 0.022 µM. In [3], this molecule registered an exposure (AUC) at 4 h of 2.47 µM·h. Taken in the same sequence, the figures for `C[C@H]1OC(=O)[C@@H]2C[C@@H]3CCCC[C@H]3[C@H](/C=C/c3ccc(-c4cccc(Cl)c4)cn3)[C@H]12` were 1460 nM, 0.01 µM and 4.11 µM·h. Consider `COc1ccccc1-c1ccc(/C=C/[C@H]2[C@@H]3CCCC[C@H]3C[C@H]3C(=O)O[C@H](C)[C@@H]23)nc1`, for which the peak level in [1] (Cmax) was 419 nM. This molecule also displayed an IC50 in data set [2] of 0.011 µM. For the same molecule, in data set [3], the AUC at 4 h was found to be 0.413 µM·h.

`C[C@H]1OC(=O)[C@@H]2C[C@@H]3CCCC[C@H]3[C@H](/C=C/c3ccc(-c4cccc(C(F)(F)F)c4)cn3)[C@H]12`: the bioavailability in data set [6] turned out to be 30%; in data set [9] it was 50%. The Cmax in [7] came out at 1160 nM; in data set [1] it was 2300 nM. In addition, the half-life in data set [8] is 12.4 h; in [10], 3.2 h. In data set [3], this molecule registered an exposure (AUC) at 4 h of 6.12 µM·h. In data set [1], `C[C@H]1OC(=O)[C@@H]2C[C@@H]3CCCC[C@H]3[C@H](/C=C/c3ccc(-c4ccccc4C(F)(F)F)cn3)[C@H]12` displayed a Cmax of 1000 nM. In addition, the half-maximal inhibitory concentration (IC50) in [2] came out at 0.046 µM. This molecule also registered an exposure (AUC) at 4 h in data set [3] of 2.35 µM·h. Taken in the same sequence, the figures for `COc1cccc(-c2ccc(/C=C/[C@H]3[C@@H]4CCCC[C@H]4C[C@H]4C(=O)O[C@H](C)[C@@H]34)nc2)c1` were 20 nM, 0.028 µM and 0.012 µM·h.

The molecule `C[C@H]1OC(=O)[C@@H]2C[C@@H]3CCCC[C@H]3[C@H](/C=C/c3ccc(-c4ccccc4Cl)cn3)[C@H]12` displayed a Cmax in data set [1] of 1780 nM. Moreover, the midpoint of inhibition in data set [2], the IC50, lay at 0.026 µM. Moreover, the area under the curve (AUC) at 4 h in data set [3] came out at 4.29 µM·h. For the molecule `CCOC(=O)c1ccccc1-c1ccc(/C=C/[C@H]2[C@@H]3CCCC[C@H]3C[C@H]3C(=O)O[C@H](C)[C@@H]23)nc1`, in data set [2], it took 0.044 µM to reach half-maximal inhibition (IC50). In turn, `Cc1ccccc1-c1ccc(/C=C/[C@H]2[C@@H]3CCCC[C@H]3C[C@H]3C(=O)O[C@H](C)[C@@H]23)nc1` came in with a Cmax in data set [1] of 1220 nM. This molecule yielded an AUC at 4 h in data set [3] of 2.81 µM·h. In data set [2], `C[C@H]1OC(=O)[C@@H]2C[C@@H]3CCCC[C@H]3[C@H](/C=C/c3ccc(-c4cccc(C#N)c4)cn3)[C@H]12` registered an IC50 of 0.025 µM. `Cc1ccc(-c2ccc(/C=C/[C@H]3[C@@H]4CCCC[C@H]4C[C@H]4C(=O)O[C@H](C)[C@@H]34)nc2)cc1` (racemic) yielded an IC50 in data set [2] of 0.325 µM. On the same count and under the same terms, the result for `CCCCc1cccc(/C=C/[C@H]2[C@@H]3CCCC[C@H]3C[C@H]3C(=O)O[C@H](C)[C@@H]23)n1` (racemic) reads 0.143 µM. Same read-out and setting: for `COc1ccc(/C=C/[C@H]2[C@@H]3CCCC[C@H]3C[C@H]3C(=O)O[C@H](C)[C@@H]23)nc1` (racemic) the value was 0.325 µM; for `C[C@H]1OC(=O)[C@@H]2C[C@@H]3CCCC[C@H]3[C@H](/C=C/c3ccc(Cc4ccccc4)cn3)[C@H]12` (racemic), 3.68 µM. On the same count and under the same terms, for `C[C@H]1OC(=O)[C@@H]2C[C@@H]3CCCC[C@H]3[C@H](/C=C/c3cccc(CO)n3)[C@H]12` (racemic) the value was 1.5 µM; for `C[C@H]1OC(=O)[C@@H]2C[C@@H]3CCCC[C@H]3[C@H](/C=C/c3ccccn3)[C@H]12` (racemic), 4 µM. Consider `COCc1cccc(/C=C/[C@H]2[C@@H]3CCCC[C@H]3C[C@H]3C(=O)O[C@H](C)[C@@H]23)n1` (racemic), for which the IC50 in data set [2] was found to be 0.85 µM. The same measure, in the same setting: for `C[C@H]1OC(=O)[C@@H]2C[C@@H]3CCCC[C@H]3[C@H](/C=C/c3cccc(Cc4ccccc4)n3)[C@H]12` (racemic) the value was 0.9 µM; for `C=Cc1cccc(/C=C/[C@H]2[C@@H]3CCCC[C@H]3C[C@H]3C(=O)O[C@H](C)[C@@H]23)n1` (racemic), 0.15 µM. Still for that read-out and setting: for `CNc1cccc(/C=C/[C@H]2[C@@H]3CCCC[C@H]3C[C@H]3C(=O)O[C@H](C)[C@@H]23)n1` (racemic) the value was 1.25 µM; for `COc1ccc(-c2ccc(/C=C/[C@H]3[C@@H]4CCCC[C@H]4C[C@H]4C(=O)O[C@H](C)[C@@H]34)nc2)cc1` (racemic), 0.204 µM; for `CC(C)c1cccc(/C=C/[C@H]2[C@@H]3CCCC[C@H]3C[C@H]3C(=O)O[C@H](C)[C@@H]23)n1` (racemic), 0.725 µM.

For the molecule `CC(C)Cc1cccc(/C=C/[C@H]2[C@@H]3CCCC[C@H]3C[C@H]3C(=O)O[C@H](C)[C@@H]23)n1` (racemic), the IC50 in data set [2] was determined as 0.55 µM. The same measure, in the same setting: for `C[C@H]1OC(=O)[C@@H]2C[C@@H]3CCCC[C@H]3[C@H](/C=C/c3ccc(-c4ccc(F)cc4)cn3)[C@H]12` (racemic) the value was 0.467 µM. Still for that read-out and setting: the result for `Cc1ccc(/C=C/[C@H]2[C@@H]3CCCC[C@H]3C[C@H]3C(=O)O[C@H](C)[C@@H]23)nc1` (racemic) reads 1.1 µM; that for `C[C@H]1OC(=O)[C@@H]2C[C@@H]3CCCC[C@H]3[C@H](/C=C/c3ccc(-c4ccc(C(F)(F)F)cc4)cn3)[C@H]12` (racemic), more than 0.3 µM; that for `C[C@H]1OC(=O)[C@@H]2C[C@@H]3CCCC[C@H]3[C@H](/C=C/c3cccc(C4CC4)n3)[C@H]12` (racemic), 0.21 µM. In the case of `CCCc1cccc(/C=C/[C@H]2[C@@H]3CCCC[C@H]3C[C@H]3C(=O)O[C@H](C)[C@@H]23)n1` (racemic), the concentration for half-maximal inhibition (IC50) in data set [2] is 0.25 µM. With `Cc1cccnc1/C=C/[C@H]1[C@@H]2CCCC[C@H]2C[C@H]2C(=O)O[C@H](C)[C@@H]12` (racemic), the half-inhibitory concentration (IC50) in data set [2] is more than 5 µM. On the same count and under the same terms, the result for `C[C@H]1OC(=O)[C@@H]2C[C@@H]3CCCC[C@H]3[C@H](/C=C/c3ccc(-c4ccc(Cl)cc4)cn3)[C@H]12` (racemic) reads 1 µM; that for `C[C@H]1OC(=O)[C@@H]2C[C@@H]3CCCC[C@H]3[C@H](/C=C/c3ccc(OCc4ccccc4)cn3)[C@H]12` (racemic), 0.019 µM. The molecule `Cc1ccnc(/C=C/[C@H]2[C@@H]3CCCC[C@H]3C[C@H]3C(=O)O[C@H](C)[C@@H]23)c1` (racemic) registered an IC50 in [2] of 2.1 µM. With `COc1cccc(/C=C/[C@H]2[C@@H]3CCCC[C@H]3C[C@H]3C(=O)O[C@H](C)[C@@H]23)n1` (racemic), the half-maximal inhibitory concentration (IC50) result in data set [11] was “Not Active”.

Regarding `C[C@H]1OC(=O)[C@@H]2C[C@@H]3CCCC[C@H]3[C@H](/C=C/c3cccc(-c4ccccc4)n3)[C@H]12` (racemic), the IC50 result in data set [11] is given as “Not Active”. Regarding `CCCCCCc1cccc(/C=C/[C@H]2[C@@H]3CCCC[C@H]3C[C@H]3C(=O)O[C@H](C)[C@@H]23)n1` (racemic), in data set [2], 3.5 µM corresponded to half-maximal inhibition (IC50).
